The source made the active and inactive calls.
How the values were obtained:
[1] = biological target: Metabotropic glutamate receptor 1 (Rattus norvegicus, UniProt P23385); assay: Antagonist activity at rat mGluR1a expressed in CHO cells assessed as inhibition of glutamate-evoked increase in calcium […] preincubated 5 mins before glutamate challenge; type: functional, cell-based
[2] = Oral bioavailability in rat at 1 mg/kg; type: ADME, organism-based; conditions: in vivo
[3] = biological target: Metabotropic glutamate receptor 5 (Homo sapiens, UniProt P41594); assay: Antagonist activity at mGluR5; type: functional
Metabotropic glutamate receptor 5, sequence (P41594 whole entry): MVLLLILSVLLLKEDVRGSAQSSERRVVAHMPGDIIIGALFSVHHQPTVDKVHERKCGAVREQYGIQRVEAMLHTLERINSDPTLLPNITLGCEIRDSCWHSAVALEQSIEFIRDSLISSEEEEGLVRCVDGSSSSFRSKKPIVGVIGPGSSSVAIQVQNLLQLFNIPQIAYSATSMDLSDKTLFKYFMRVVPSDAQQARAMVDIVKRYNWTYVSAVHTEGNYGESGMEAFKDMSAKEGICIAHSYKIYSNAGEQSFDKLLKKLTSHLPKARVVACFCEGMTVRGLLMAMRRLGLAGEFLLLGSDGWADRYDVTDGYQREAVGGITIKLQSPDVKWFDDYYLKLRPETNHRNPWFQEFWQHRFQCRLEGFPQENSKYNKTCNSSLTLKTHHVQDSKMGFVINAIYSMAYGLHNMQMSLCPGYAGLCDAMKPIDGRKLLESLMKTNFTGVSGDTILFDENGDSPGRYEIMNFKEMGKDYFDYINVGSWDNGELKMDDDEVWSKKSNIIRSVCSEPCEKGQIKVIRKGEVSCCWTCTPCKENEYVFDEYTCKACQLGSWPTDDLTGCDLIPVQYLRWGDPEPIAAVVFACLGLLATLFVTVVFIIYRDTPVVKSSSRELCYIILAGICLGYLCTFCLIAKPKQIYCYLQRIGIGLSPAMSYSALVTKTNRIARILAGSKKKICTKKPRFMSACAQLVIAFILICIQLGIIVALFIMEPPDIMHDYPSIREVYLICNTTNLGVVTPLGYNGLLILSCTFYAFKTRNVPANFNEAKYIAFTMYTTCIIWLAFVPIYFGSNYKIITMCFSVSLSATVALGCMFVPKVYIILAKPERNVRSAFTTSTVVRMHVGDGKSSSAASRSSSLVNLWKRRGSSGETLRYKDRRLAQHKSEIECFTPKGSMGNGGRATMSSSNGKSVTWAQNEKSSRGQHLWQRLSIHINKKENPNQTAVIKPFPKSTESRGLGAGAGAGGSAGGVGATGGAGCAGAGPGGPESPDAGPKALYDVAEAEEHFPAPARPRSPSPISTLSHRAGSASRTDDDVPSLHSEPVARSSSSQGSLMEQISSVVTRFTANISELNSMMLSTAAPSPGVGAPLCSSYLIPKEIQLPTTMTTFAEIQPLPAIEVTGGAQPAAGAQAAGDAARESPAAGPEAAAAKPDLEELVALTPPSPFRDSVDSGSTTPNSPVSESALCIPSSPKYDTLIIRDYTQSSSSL

Rattus norvegicus [4] = assay: Antinociceptive activity in anaesthetized rat assessed as maximal inhibition of noxious pinch-induced electromyograph response at 10 fold free Ki concentration in cerebrospinal fluid measured after 1 hr; type: functional, organism-based
Rattus norvegicus [5] = assay: Antinociceptive activity in anaesthetized rat assessed as inhibition of noxious pinch-induced electromyograph response at 22 mg/kg, iv administered as bolus dose for 30 seconds and 9.6 mg/kg/hr, iv administered via infusion measured after 1 hr; type: functional, organism-based
[6] = Volume of distribution in rat at 1 mg/kg; type: ADME, organism-based; set-up: dose 1 mg/kg; conditions: in vivo
Rattus norvegicus [7] = assay: Toxicity in anaesthetized electromyograph pinch rat model assessed as effect on sensory input to spinal cord at 22 mg/kg, iv administered as bolus dose for 30 seconds and 9.6 mg/kg/hr, iv administered via infusion; type: organism-based; conditions: in vivo
Liver microsomes [8] = assay: Metabolic stability in human liver microsomes assessed as intrinsic clearance; type: ADME, Microsome
[9] = Half life in rat at 1 mg/kg; type: ADME, organism-based; set-up: dose 1 mg/kg; conditions: in vivo
Rattus norvegicus [10] = assay: Antinociceptive activity in anaesthetized rat assessed as inhibition of low threshold tactile stimulus-induced electromyograph response at 22 mg/kg, iv administered as bolus dose for 30 seconds and 9.6 mg/kg/hr, iv administered via infusion measured after 1 hr; type: functional, organism-based
[11] = Solubility of the compound; type: physicochemical
[12] = Clearance in rat at 1 mg/kg; type: ADME, organism-based; set-up: dose 1 mg/kg; conditions: in vivo
[13] = Lipophilicity, log D of the compound; type: physicochemical; conditions: octanol/water
[14] = Ratio of free drug level in cerebrospinal fluid to steady state unbound plasma in iv dosed rat; type: ADME, organism-based
Rattus norvegicus [15] = assay: Free plasma concentration in anaesthetized electromyograph pinch rat model at 22 mg/kg, iv administered as bolus dose for 30 seconds and 9.6 mg/kg/hr, iv administered via infusion; type: ADME, organism-based; conditions: in vivo
Liver microsomes [16] = assay: Metabolic stability in rat liver microsomes assessed as intrinsic clearance; type: ADME, Microsome
[17] = biological target: Metabotropic glutamate receptor 1 (Homo sapiens, UniProt Q13255); assay: Antagonist activity at mGluR1; type: functional
Metabotropic glutamate receptor 1 (Homo sapiens, UniProt Q13255), sequence (Q13255 whole entry): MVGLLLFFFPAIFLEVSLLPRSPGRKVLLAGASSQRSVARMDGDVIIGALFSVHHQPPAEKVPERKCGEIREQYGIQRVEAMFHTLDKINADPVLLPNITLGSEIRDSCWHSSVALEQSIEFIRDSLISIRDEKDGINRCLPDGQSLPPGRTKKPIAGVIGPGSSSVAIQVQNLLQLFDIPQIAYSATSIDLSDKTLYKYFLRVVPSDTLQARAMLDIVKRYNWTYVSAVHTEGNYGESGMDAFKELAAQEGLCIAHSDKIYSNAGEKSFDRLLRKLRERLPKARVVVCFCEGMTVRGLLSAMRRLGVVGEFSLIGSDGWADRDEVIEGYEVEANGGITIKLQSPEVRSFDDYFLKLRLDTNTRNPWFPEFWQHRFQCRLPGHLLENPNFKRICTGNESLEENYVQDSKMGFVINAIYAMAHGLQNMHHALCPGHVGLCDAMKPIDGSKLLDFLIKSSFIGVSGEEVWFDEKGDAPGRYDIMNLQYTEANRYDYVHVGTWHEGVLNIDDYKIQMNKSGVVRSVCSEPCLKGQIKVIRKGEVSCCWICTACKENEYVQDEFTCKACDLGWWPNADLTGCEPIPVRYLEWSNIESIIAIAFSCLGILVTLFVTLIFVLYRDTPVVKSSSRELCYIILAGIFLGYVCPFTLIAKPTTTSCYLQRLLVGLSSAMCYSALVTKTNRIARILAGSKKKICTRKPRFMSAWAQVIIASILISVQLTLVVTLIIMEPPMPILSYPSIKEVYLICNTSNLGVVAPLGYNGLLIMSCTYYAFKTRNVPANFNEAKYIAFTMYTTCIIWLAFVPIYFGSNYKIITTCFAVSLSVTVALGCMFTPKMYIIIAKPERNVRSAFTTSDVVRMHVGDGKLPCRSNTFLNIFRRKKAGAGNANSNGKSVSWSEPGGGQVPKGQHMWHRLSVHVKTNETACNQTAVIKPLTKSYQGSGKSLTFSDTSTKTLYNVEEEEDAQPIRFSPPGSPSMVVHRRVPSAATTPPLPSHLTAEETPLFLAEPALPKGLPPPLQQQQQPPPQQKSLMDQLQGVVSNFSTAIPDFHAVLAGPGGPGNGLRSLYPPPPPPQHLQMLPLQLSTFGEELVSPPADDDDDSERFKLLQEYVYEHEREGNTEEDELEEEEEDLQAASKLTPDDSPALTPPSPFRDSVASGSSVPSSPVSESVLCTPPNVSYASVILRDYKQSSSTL

[18] = Protein binding in rat plasma at 1 mg/kg; type: ADME, organism-based; set-up: dose 1 mg/kg; conditions: read-out: PPB (converted)
Rattus norvegicus [19] = assay: Antinociceptive activity in anaesthetized rat assessed as maximal inhibition of noxious pinch-induced electromyograph response at 8 to 16 fold free Ki concentration in cerebrospinal fluid measured after 1 hr; type: functional, organism-based
Rattus norvegicus [20] = assay: Antinociceptive activity in anaesthetized rat assessed as inhibition of noxious pinch-induced electromyograph response at 0.3 mg/kg, iv administered as bolus dose for 30 seconds and 0.3 mg/kg/hr, iv administered via infusion measured after 1 hr; type: functional
Rattus norvegicus [21] = assay: Analgesic activity in awake rat at 0.3 mg/kg, iv administered as bolus dose for 30 seconds and 0.3 mg/kg/hr, iv administered via infusion measured after 1 hr; type: functional, organism-based

Metabotropic glutamate receptor 1 (Rattus norvegicus, UniProt P23385), sequence (P23385 whole entry): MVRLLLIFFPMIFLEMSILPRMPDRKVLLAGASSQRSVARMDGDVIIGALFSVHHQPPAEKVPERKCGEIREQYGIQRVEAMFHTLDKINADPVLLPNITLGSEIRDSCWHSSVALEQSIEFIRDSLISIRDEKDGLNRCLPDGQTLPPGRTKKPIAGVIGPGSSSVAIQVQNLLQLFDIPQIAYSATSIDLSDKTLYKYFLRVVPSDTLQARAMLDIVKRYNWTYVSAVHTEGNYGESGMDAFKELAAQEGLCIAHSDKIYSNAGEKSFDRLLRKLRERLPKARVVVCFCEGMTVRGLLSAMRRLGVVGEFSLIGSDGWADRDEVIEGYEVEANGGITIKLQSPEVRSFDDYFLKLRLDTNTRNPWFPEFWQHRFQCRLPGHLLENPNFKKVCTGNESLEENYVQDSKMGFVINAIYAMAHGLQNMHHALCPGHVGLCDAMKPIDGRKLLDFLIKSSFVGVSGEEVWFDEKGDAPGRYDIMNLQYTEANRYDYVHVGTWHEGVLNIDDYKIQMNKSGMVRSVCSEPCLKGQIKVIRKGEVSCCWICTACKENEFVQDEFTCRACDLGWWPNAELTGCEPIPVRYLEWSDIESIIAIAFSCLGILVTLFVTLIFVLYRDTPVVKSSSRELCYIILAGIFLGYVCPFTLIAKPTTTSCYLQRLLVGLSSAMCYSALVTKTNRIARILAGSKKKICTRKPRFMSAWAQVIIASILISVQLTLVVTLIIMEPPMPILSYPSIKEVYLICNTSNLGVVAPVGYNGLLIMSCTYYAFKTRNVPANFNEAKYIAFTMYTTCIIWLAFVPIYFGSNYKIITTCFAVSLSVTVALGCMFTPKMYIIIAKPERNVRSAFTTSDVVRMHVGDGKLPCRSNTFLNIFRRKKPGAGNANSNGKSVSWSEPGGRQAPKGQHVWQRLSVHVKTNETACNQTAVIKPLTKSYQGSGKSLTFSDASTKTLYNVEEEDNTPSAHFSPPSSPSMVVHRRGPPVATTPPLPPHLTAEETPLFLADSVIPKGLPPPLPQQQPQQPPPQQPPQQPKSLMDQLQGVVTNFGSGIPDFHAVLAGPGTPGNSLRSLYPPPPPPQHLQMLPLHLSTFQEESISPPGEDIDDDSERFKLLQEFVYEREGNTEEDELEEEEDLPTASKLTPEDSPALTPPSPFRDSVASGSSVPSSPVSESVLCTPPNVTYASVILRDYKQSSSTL

Structure (SMILES)	Ki [1] [nM]	also measured
CN(C)c1cc2c(N(C)C3Cc4ccccc4C3)ncnc2cn1	300	
OCCOc1cc2c(NC3CCCCC3)ncnc2cn1	177	
CNc1ncnc2cnc(NC3Cc4ccccc4C3)cc12	160	
C[C@H](Nc1ncnc2cnc(N(C)C)cc12)c1ccccc1	1400	
c1ccc2c(OC3CCCCC3)ncnc2c1	694	
COCCNc1cc2c(NC3Cc4ccccc4C3)ncnc2cn1	5	
c1nc(NC2CCCCC2)c2cc(OCCN3CCOCC3)ncc2n1	42	
c1ccc2c(c1)CC(Nc1nccc3ccccc13)C2	1650	
CN(C)CCNc1cc2c(NC3Cc4ccccc4C3)ncnc2cn1	102	
OCCNc1cc2c(NCCO)ncnc2cn1	6150	
OCCOCCNc1cc2c(NC3Cc4ccccc4C3)ncnc2cn1	3	bioavailability [2]: 33%; IC50 [3]: > 3000 nM; inhibition (Rattus norvegicus [4]): Active; inhibition (Rattus norvegicus [5]): Active; Vd [6]: 0.6 L/kg; Activity (Rattus norvegicus [7]): Non-toxic; clearance (Liver microsomes [8]): < 7 µL/min/mg; half-life [9]: 18 min; inhibition (Rattus norvegicus [10]): inactive; solubility [11]: Insoluble; clearance [12]: 26 mL/min/kg; logD [13]: 3; Kp uu [14]: 0.02; Cp (Rattus norvegicus [15]): > 1000 nM; clearance (Liver microsomes [16]): 30 µL/min/mg; IC50 [17]: 3 nM; fraction unbound [18]: 0.19
COc1cc2c(NC3Cc4ccccc4C3)ncnc2cn1	115	
c1ccc2c(c1)CC(Nc1ncnc3ccccc13)C2	34	
c1ccc2c(NC3CCCCC3)ncnc2c1	27	
c1nc(NC2CCCCC2)c2cc(NCCN3CCOCC3)ncc2n1	10	logD [13]: 2.8; Kp uu [14]: 0.07
OCCNc1ncnc2cnc(NC3Cc4ccccc4C3)cc12	125	
NCCNc1cc2c(NC3CCCCC3)ncnc2cn1	2200	

Structure (SMILES)	Ki [1] [nM]	also measured
CNc1cc2c(N(C)C3Cc4ccccc4C3)ncnc2cn1	54	
c1nc(NC2CCCCCC2)c2cc(OCCN3CCOCC3)ncc2n1	6	inhibition (Rattus norvegicus [19]): Active; clearance (Liver microsomes [8]): 24 µL/min/mg; logD [13]: 3.4; Kp uu [14]: 0.5
CNc1cc2c(NC3Cc4ccccc4C3)ncnc2cn1	14	logD [13]: 2.9; Kp uu [14]: 0.06
COCCOc1cc2c(NC3CCCCC3)ncnc2cn1	101	
OCCCOc1cc2c(NC3CCCCC3)ncnc2cn1	33	
c1ccc2c(NC3CCCCC3)ccnc2c1	6160	
CCCC(C)Nc1ncnc2cnc(N(C)C)cc12 (centres undefined)	858	
COCCNc1cc2c(NC3CCCCC3)ncnc2cn1	11	
NCCCNc1cc2c(NC3CCCCC3)ncnc2cn1	200	
Nc1cc2c(Nc3ccc(F)c(Cl)c3)ncnc2cn1		IC50 [17]: 300 nM
OCCNc1cc2c(NC3Cc4ccccc4C3)ncnc2cn1	21	
c1ccc2c(c1)CC(Nc1cc3c(NC4Cc5ccccc5C4)ncnc3cn1)C2	31	
O=C1CCCN1CCOc1cc2c(NC3CCCCC3)ncnc2cn1	20	
CN(C)c1cc2c(NC3Cc4ccccc4C3)ncnc2cn1	185	
CN(C)c1cc2c(NC3CCCCC3)ncnc2cn1	199	
CN1CC[C@]23c4c5ccc(O)c4O[C@H]2[C@@H](O)C=C[C@H]3[C@H]1C5 [MORPHINE]		inhibition in vivo at 0.3 mg/kg (Rattus norvegicus [20]): 40%; Activity (Rattus norvegicus [21]): Active
